Measurements as given in PubChem BioAssay AID179 (DTP/NCI, 2004).
Where “and” joins values, the source holds several entries; their conditions need not be identical. Equal entries are not always repeated. Calls of active or inactive are those of the source.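 How the source made its calls: active means compounds giving half or more protection of infected cells from virus-caused growth loss, again on retest; inactive means the rest.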

System: CEM cells HIV-1 protection, formazan growth assay
Test: NCI AIDS Antiviral Assay
Details: for IC50: measured here: growth of uninfected CEM cells
Summary of the method: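 Protection of CEM cells against HIV-1 measured as cell growth via soluble formazan read-out, with five concentrations tested on both infected and uninfected cells; failure to protect may reflect toxicity.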

| SMILES | EC50 [µM] | IC50 | outcome |
| --- | --- | --- | --- |
| O=C1C2Nc3ccccc3SC2C(=O)N1c1cccc([N+](=O)[O-])c1 (stereo not given) | > 55 | > 55 µM | – |
| CC1CCC(C(C)C)/C(=N/NC(=O)CC#N)C1 (stereo not given) | > 200 | > 200 µM | – |
| S=c1sc2c(s1)SCc1cccc(n1)CSc1sc(=S)sc1SCc1cccc(n1)CS2 | > 200 | > 200 µM | – |
| CC(O)CCCOC(c1ccccc1)(c1ccccc1)c1ccccc1 (stereo not given) | > 38.9 | > 38.9 µM | – |
| CCOC(=O)Cn1c2ccc(Br)cc2c2nc3ccccc3nc21 | > 100 | > 100 µM | – |
| O=C1C=C(C2CCCO2)C(=O)c2c(O)ccc(O)c21 (stereo not given) | – | – | inactive |
| CC1=NNC(=O)C1C1CC(c2c[nH]c3ccccc23)=Nn2c(-c3ccccc3)nnc21 (stereo not given) | > 100 | 32.4 µM | – |
| O=C(O)C1C2CC3CC2CC31 (stereo not given) | – | – | inactive |
| COC1(C)CCC(OS(C)(=O)=O)CO1 (stereo not given) | > 200 | > 200 µM | – |
| N#CCc1ccc(C(C#N)/C(CCCC(=O)Nc2cccc([N+](=O)[O-])c2)=N/NC(N)=S)cc1 (stereo not given) | – | – | inactive |
| CCOc1ccc(-c2coc3cc(C)c(OCC)c(C)c3c2=O)cc1 | > 200 | > 200 µM | – |
| CN1CCN(CCSc2nnc(-c3ccc4ccccc4c3)c3ccccc23)CC1 | > 219 | 12.9 µM | – |
| CCOC(=O)C1C2CCC(O2)C1C(=O)O (stereo not given) | > 200 | 21.4 µM | – |
| O=C1CCC(c2nc3ccccc3o2)C(=O)N1 (stereo not given) | > 1070 | > 1070 µM | – |
| COC(=O)N(C)C(C#N)CCc1ccccc1 (stereo not given) | > 15.5 | > 15.5 µM | – |
| C1CSCCSCCSCCSCCS1 | > 17.4 | > 17.4 µM | – |
| COC(=O)c1c(C)c(=O)n(C)c(=O)n1C | – | – | inactive |
| [C-]#[O+].[C-]#[O+].[C-]#[O+].[Mo].c1ccc([PH+](CC[As](c2ccccc2)c2ccccc2)CC[As](c2ccccc2)c2ccccc2)cc1 | – | – | inactive |
| O=c1c2c([nH]c3nccn13)CCC2 | > 200 | > 200 µM | – |
| O=S1(=O)c2ccccc2N2C(c3ccccc3)=NOC2(c2ccccc2)CC1c1ccc(Br)cc1 (stereo not given) | – | – | inactive |
| O=P(O)(OCCc1ccccc1)Oc1ccccc1O | > 200 | > 200 µM | – |
| CC(=O)OCC1OC(Nc2ccc3nc(C)n(-c4cccc(C)c4)c(=O)c3c2)C(OC(C)=O)C(OC(C)=O)C1OC(C)=O (stereo not given) | > 126 | > 126 µM | – |
| NC(=O)NC(=O)c1ccco1 | > 200 | > 200 µM | – |

| SMILES | EC50 [µM] | IC50 | outcome |
| --- | --- | --- | --- |
| CCOc1cc2c(cc1O)CC[C@@H]1[C@@H]2CC[C@]2(C)C(N)CC[C@@H]12 (stereo not given in full) | > 200 | 1.2 µM | – |
| CCOC(=O)c1ccc(NC(NC(=O)CC)(C(F)(F)F)C(F)(F)F)cc1 | > 200 | 24.5 µM | – |
| Cc1[nH]c(NC(=O)C(=O)O)c(C#N)c1C | > 200 | > 200 µM | – |
| C=CCn1c(N)c(N=O)c(=O)n(C)c1=O | > 200 | > 200 µM | – |
| O=CNc1ccc(S(=O)(=O)c2ccc([N+](=O)[O-])cc2)cc1 | > 200 | 30.2 µM | – |
| CCCCCCCCNC(=O)SCCCC | – | – | inactive |
| COc1ccc2c(c1)C(C(=O)O)CC(=O)N2C (stereo not given) | > 200 | > 200 µM | – |
| CCOC(=O)/C(N=O)=C(/O)CC(C)C | > 200 | > 200 µM | – |
| COc1cccc(C2SCc3nc4ccccc4n32)c1 (stereo not given) | – | – | inactive |
| O=Nn1cc(-c2cc3ccccc3n2N=O)c2ccccc21 | > 200 | 97.7 µM | – |
| Cc1nc2c(nc1C)C(=O)C(Cl)=CC2=O | – | – | inactive |
| C[C@@H]1C(=O)OCC2=C3C[C@@H](CC[C@@]3(C)C=CC2=O)[C@H](C)C(=O)OCC2=C3C[C@H]1CC[C@@]3(C)C=CC2=O | > 24.5 | 21.4 µM | – |
| CCOC(=O)C(NC(=O)OCc1ccccc1)C(=O)O (stereo not given) | > 200 | > 200 µM | – |
| c1ccc([P+](CCSCCSCC[P+](c2ccccc2)(c2ccccc2)c2ccccc2)(c2ccccc2)c2ccccc2)cc1 | > 339 | 61.7 µM | – |
| NCCCCC(NC(=O)C(CS)NC(=O)C(N)Cc1cnc[nH]1)C(=O)NC(Cc1ccccc1)C(=O)NC(Cc1c[nH]c2ccccc12)C(=O)NC(Cc1c[nH]c2ccccc12)C(N)=O (stereo not given) | > 50.1 | > 50.1 µM | – |
| CC1(C)COC(Cc2ccccc2)=N1 | > 200 | > 200 µM | – |
| N#CNC1=NC(C(=O)O)CC(=O)N1CCc1c[nH]c2ccccc12 (stereo not given) | > 200 | 50.1 µM | – |
| CC(C)CC(NC(=O)C(CCI)Cc1ccccc1)C(=O)Nc1ccccc1 (stereo not given) | > 200 | 32.4 µM | – |
| COc1cc2c(cc1O)[C@H](C)C(c1ccc(Cl)cc1)O2 (stereo not given in full) | > 64.6 | 33.1 µM | – |
| C[C@H](c1ccccc1)N1C(=O)[C@@H](OCc2ccccc2)[C@H]1[C@H](COC(=O)COCc1ccccc1)OCc1ccccc1 | > 200 | > 200 µM | – |
| CN(C)C=C1C(=O)NC(=O)NC1=O | > 200 | > 200 µM | – |
| CC1(C)OC2OC(C(O)COC(=O)c3ccccc3)C(Cl)C2O1 (stereo not given) | > 219 | 151 µM | – |
| O=C1c2ccccc2C2(c3ccc(Cl)cc3)NCc3ccccc3CN12 (stereo not given) | > 200 | 12.9 µM | – |

| SMILES | EC50 [µM] | IC50 | outcome |
| --- | --- | --- | --- |
| c1ccc2cc(CNCCCCNCCCNCc3ccc4ccccc4c3)ccc2c1 | > 200 | 0.257 µM | – |
| O=C(c1ccc(Cl)cc1)N(C(=S)N1CCN(c2ccccn2)CC1)c1ccccc1 | > 30.9 | > 30.9 µM | – |
| CCOC(=O)/C=C1\C(=O)N(Cc2ccccc2)c2ccccc21 | > 200 | 1 µM | – |
| CSC1=Nc2ccccc2-c2nc(-c3ccccc3)cc(-c3ccccc3)c2C1 | > 200 | > 200 µM | – |
| O=c1cc(N=Nc2ccc(Cl)c(Cl)c2)[nH]c(=O)[nH]1 | > 2 | 1.55 µM | – |
| Cc1cn(C2O[C@@H]3CN(O)[C@H](C)[C@]3(O)C2O)c(=O)[nH]c1=O (stereo not given in full) | > 200 | > 200 µM | – |
| CSc1ccc(NC(=O)Nc2cccc(C)n2)cc1 | > 200 | > 200 µM | – |
| COc1cc(OC)c(C(=O)CC(=O)c2cc(OC)c(OC)c(OC)c2OC)cc1OC | > 575 | 479 µM | – |
| Cn1ccnc1CCc1ccc(F)cc1F | > 200 | > 200 µM | – |
| CC(C)C(O)C(=O)C(Sc1ccccc1)C(C)C (stereo not given) | > 355 | 240 µM | – |
| CC(=O)C1=CN=C2C(=O)N(c3ccccc3)N(C)C12C (stereo not given) | > 200 | > 200 µM | – |
| CC(C)C(NC(=O)c1ccccc1SC(=O)CCCC[n+]1ccccc1)C(N)=O (stereo not given) | 1.05 | 8.71 µM | – |
| COc1ccc(/C=C/C(=O)C(C)(C)C)cc1OC | > 200 | 39.8 µM | – |
| Cc1cc(O)cc2c1CC=C1C(=C2)C(=O)C(=O)C(C(C)C)=C1O | – | – | inactive |
| CCCCn1/c(=N/C(=S)N(C)C)ss/c1=N\C(=S)N(C)C | – | – | inactive |
| CCOC(=O)CC(=O)N(c1ccc(OC)cc1)C(C(=O)OC)c1ccccc1 (stereo not given) | > 200 | 166 µM | – |
| Cc1cccc2c(=O)c3c(O)cc(O)cc3n(C)c12 | 145 | > 200 µM | – |
| CCOC(=O)NC(C(=O)OCC)(N1CCN(c2cc3c(cc2F)c(=O)c(C(=O)O)cn3CC)CC1)C(F)(F)F (stereo not given) | > 200 | 145 µM | – |
| Cc1ccc(S(=O)(=O)Oc2ccc3oc4c(CO)ccc(NCCN(C)C)c4c(=O)c3c2)cc1 | > 38.9 | 6.92 µM | – |
| Cc1cc(Br)ccc1N=Nc1c(C)nn(-c2ccccc2)c1-c1ccccc1 | – | – | inactive |
| c1cnc2c(c1)Sc1ncccc1S2 | > 115 | 51.3 µM | – |
| CCN=C(NNc1ccc([N+](=O)[O-])cc1)P(=O)(OC(C)C)OC(C)C | > 36.3 | > 36.3 µM | – |
| CCCCCc1nnc2n1N=C(c1ccc(Cl)cc1)CS2 | > 200 | > 200 µM | – |

| SMILES | EC50 [µM] | IC50 | outcome |
| --- | --- | --- | --- |
| COC1N(C2C=CC(CO)O2)C(=O)NC(=O)C1(C)Br (stereo not given) | 100 | 129 µM | – |
| C=CC1ON(C)CCc2cc(OC)c(OC)cc21 (stereo not given) | 162 | > 200 µM | – |
| S=C(N/N=C(\c1ccccc1)c1ccccn1)NC1CCCCC1 | > 200 | 2.4 µM | – |
| O=C(Nc1ccccn1)Nc1ccccn1 | > 200 | 107 µM | – |
| FC(F)(F)c1nc2cc(SSc3cc4nc(C(F)(F)F)[nH]c4cc3Cl)c(Cl)cc2[nH]1 | > 200 | 7.41 µM | – |
| CC(C)(C)C1CCC2c3c([nH]c4ccccc34)C3C(=O)N(c4cc(Cl)ccc4Cl)C(=O)C3C2C1 (stereo not given) | > 200 | 19.1 µM | – |
| O=C1c2ccc(O)c(O)c2C(=O)c2c(O)ccc(O)c21 | > 63.1 | 11.7 µM | – |
| CON(C)C(=O)C(C)N(Cc1ccccc1)Cc1ccccc1 (stereo not given) | > 83.2 | 33.1 µM | – |
| c1ccc(COc2ccc(CC3SCCCS3)cc2)cc1 | > 200 | > 200 µM | – |
| O=C1C(O)=C(c2ccccc2)S(=O)(=O)C1c1ccccc1 (stereo not given) | > 200 | 79.4 µM | – |
| C=CCNC(=S)/N=C/c1c(O)c2ccccc2oc1=O | > 64.6 | 43.7 µM | – |
| CCOc1ccccc1NC(=O)CCC(=O)OC | > 1000 | > 1000 µM | – |
| CCCc1ccc(OC2OC(CO)C(O)C(O)C2O)cc1 (stereo not given) | > 302 | > 302 µM and 85.1 µM | – |
| O=C(Cc1ccccc1)NN1C(=O)C(Cl)C1c1ccc(O)cc1 (stereo not given) | > 204 | 170 µM | – |
| COc1ccc(N(c2ccc(C#N)cc2)c2ccc(C#N)cc2)cc1 | > 45.7 | 33.1 µM | – |
| CN(/N=C\c1ccccc1Cl)C(c1ccccc1Cl)N(C)/N=C/c1ccccc1Cl (stereo not given) | – | – | inactive |
| CNc1nc2cc(OC)c(OC)cc2c(=O)[nH]1 | > 200 | 191 µM | – |
| CC(Cc1ccc(O)c(O)c1)C(C)Cc1ccc(O)c(O)c1 (stereo not given) | > 200 | 8.91 µM | – |
| C[Si](C)(C)C#CC(O)CS(=O)c1ccccc1 (stereo not given) | > 200 | 105 µM | – |
| COc1ccc2c(N=[N+]=[N-])c(-c3ccccc3)c(=O)oc2c1 | – | – | inactive |
| CC(C)N(C(=O)C12C3C4C1C1C2C3C41C(=O)N(C(C)C)C(C)C)C(C)C (stereo not given) | > 72.4 | > 72.4 µM | – |
| O=C(CC(O)(C(F)(F)F)C(F)(F)F)c1ccc(-c2ccccc2)cc1 | > 200 | 33.9 µM | – |
| COc1cc2ccc1OCc1cccc(n1)COc1ccc(cc1OC)C=NCCNCCN=C2 | 132 | > 200 µM | – |
